Experimental data taken from paper PMC7139703, “Thiopurine Derivative-Induced Fpg/Nei DNA Glycosylase Inhibition: Structural, Dynamic and Functional Insights” (International Journal of Molecular Sciences, 2020).

Assays:
LlFpg/DNA complex C2 = target: T1, LlFpg/DNA complex C2 (Lactococcus lactis subsp. cremoris, UniProt P42371); assay: EMSA, Fpg DNA binding to 14-mer [THF:C] duplex, non-specific complex C2 (Fpg/DNA 2/1); conditions: 2 mM TCEP, 6.7-fold molar excess over compound; Figure 3
T1 construct: made in house; host or cells: E. coli BH540 (fpg defective)
T1 sequence (P42371 2-273 limits assumed): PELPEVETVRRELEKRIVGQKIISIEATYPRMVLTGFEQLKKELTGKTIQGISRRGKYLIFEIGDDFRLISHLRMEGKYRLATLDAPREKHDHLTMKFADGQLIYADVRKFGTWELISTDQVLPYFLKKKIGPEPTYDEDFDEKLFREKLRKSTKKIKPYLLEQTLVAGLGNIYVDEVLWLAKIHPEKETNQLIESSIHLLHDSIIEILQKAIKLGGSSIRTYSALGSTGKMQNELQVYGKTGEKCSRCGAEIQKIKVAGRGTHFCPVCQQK
From the text: (§1) To complement this study, we examined the effect of TXn on the binding of Fpg to a short DNA duplex containing a tetrahydrofuran (THF), a non-cleavable AP site analog. The enzyme specifically recognizes THF and forms a stable abortive complex with DNA [18, 34, 35, 36]. […] A representative titration experiment (with and without TCEP) of the 14-mer [THF:C] Fpg formed two stable complexes with this short DNA probe that were easily observed by EMSA: a high-affinity complex C1 corresponding to the lesion recognition complex (LRC), with nanomolar affinity, and a complex C2 only observed at higher Fpg concentrations. C2 results in C1 titration by a second Fpg molecule. This finding illustrates that the crystal structure of Fpg bound to 8-oxoG-carbanucleotide-containing DNA [38] (Figure S5). The stability of each preformed complex was then examined by EMSA in the presence of 2TX or TXn. […] The enzyme inactivation mediated by 2TX through ZnF oxidation that directly affects the DNA binding properties of the enzyme is also in agreement with this last observation.
The inhibitor concentrations that induced the loss of the half-maximal binding (IC50app^B) were determined from these curves and are reported in Table 1. IC50app^B compared well with IC50app^A. As observed above for the enzyme activity, strong reducers, such as TCEP, abolished the negative effects of 2TX and TXn on Fpg/DNA complex stability and formation. These findings again indicate that inhibition by thio-compounds essentially relies on the oxidation of the Fpg ZnF (for an example, see experiment with TX19, Figure S4). […] This troubling and unexpected observation led us to evaluate this effect with the TXn small library compounds. To prevent a side effect due to a possible partial reduction by TCEP, we performed EMSA in the presence of a 6.7-fold molar excess of TCEP with respect to 2TX and TXn after complex formation (Figure 3).
Figure 3 Impact of TXn on the non-specific Fpg/DNA complex C2 stability in highly reducing conditions. EMSA was performed as described in the ‘Material & Methods’, except TCEP was added at a 2 mM final concentration in each binding assay. (a) Representative experiment at 0.3 mM 2TX and more efficient TXn; (b) Dose-response with the best TXn. Upper panel: Representative EMSA experiment with TX10. Lower panel: Dose-response curves with the indicated TXn.
The DNA binding activity was measured using EMSA [37]. Briefly, 0.1 nM of the 5′-labeled 14-mer [THF:C] (see above) was incubated with the enzyme at 4 °C for 30 min in 25 mM HEPES/NaOH (pH 7.5), 150 mM NaCl, 5% glycerol, 0.1 mg/mL BSA and 8% DMSO. The incubation mixture was then loaded onto a native 10% polyacrylamide gel (Acryl/Bis 19/1) and electrophoresed at 25 V/cm for 90 min at 4 °C. After electrophoresis, the gels were dried and exposed overnight for autoradiography using a Typhoon imager and quantified with ImageQuant software. To evaluate the inhibitor effect of 2TX/TXn on the DNA binding activity of each Fpg/Nei enzyme, we first determined the experimental conditions required to bind 50% of the DNA probes without an inhibitor in the presence of 8% DMSO (limiting enzyme concentration). Under these conditions, we obtained the half-maximal DNA binding 0.25, 7 and 5 nM of Fpg, hNeil1 and mvNei1. We used this limited enzyme concentrations to evaluate the inhibitor effect of 2TX/TXn on the enzyme DNA binding activity. This effect was determined by the addition of the thio-compound in the pre-equilibrium mixture of the enzyme and DNA probe (30 min) and incubated for an additional 30 min at 4 °C. For the best inhibitors of Fpg, a dose-response curve was established from at least three independent experiments and the IC50 was determined (IC50^B, Table 1). […]
Rieux et al. Thiopurine derivative-induced Fpg/Nei DNA glycosylase inhibition:
structural, dynamic and functional insights
Figure S6. […]

LlFpg = target: T2, LlFpg (Lactococcus lactis subsp. cremoris, UniProt P42371); assay: LlFpg 8-oxoG-DNA glycosylase/AP lyase activity assay (Urea-PAGE radioassay); type: biochemical; conditions: for inhibition of Fpg catalytic activity by reduced forms: 400 µM, homogeneous reduced form; for IC50: homogeneous reduced or disulfide form dissolved in 50 mM sodium phosphate, no DMSO stock, read-out: IC50^A (Fpg catalysis), homogeneous redox forms
T2 construct: made in house; host or cells: E. coli BH540 (fpg defective)
Method: Figure 1 Effect of 2-thioxanthine (2TX)-derivatives on Fpg activity. A total of 20 nM of 5′-[^32P]-8-oxoG-containing 24-bp DNA duplex (labeled on the damaged strand) was incubated with 2 nM of LlFpg alone (dimethyl sulfoxide (DMSO) control) or with the indicated 2TX and 2TX-derivatives (TXn) concentrations, as described in the “Materials and Methods” section. (a) Screening of TXn for Fpg inhibition. Averages and standard deviations were obtained from at least three independent experiments. Mono- and di-thiolated compounds are highlighted in red and blue, respectively. (b) Dose-response curves for best inhibitors. Each data point represents the mean value obtained from at least three independent measurements.
(§2) Fpg, hNeil1 and mvNei1 are bifunctional DNA glycosylases associated with concerted DNA glycosylase activity (cleavage of the N-glycosidic bond between the base lesion and the C1′ of the deoxyribose) and AP lyase activity that comprises the successive cleavage of the phosphodiester bonds at the 3′ and 5′ of the resulting abasic (AP) site, respectively (β, δ-elimination). Thus, AP sites that result from the excision of the damaged base are quantitatively converted into one nucleoside gap by these enzymes. The DNA glycosylase/AP lyase activity of each enzyme was measured by incubating 20 nM of 24-mer DNA duplexes ([OG:C] and [DHU:G] for Fpg and hNeil1/mvNei1, respectively) 5′-labeling on the damaged strand (see above) with 2 nM of Fpg, or mvNei1 for 15 min or, with 20 nM of hNeil1 for 30 min at 37 °C in 10 mM Tris-HCl, pH 7.6, 150 mM NaCl, 1 mM EDTA, 0.1 mg/mL BSA and 8% DMSO. The reaction was stopped by the addition of 1 volume of formamide loading buffer (96% formamide, 20 mM Tris/HCl pH 8.0 and 2 mM Na2EDTA), heated at 80 °C for 2 min and then analyzed by 20% Urea-PAGE, as previously described. […] Under these conditions, only 50% of the substrate is converted to the cleavage product (limiting enzyme concentration conditions). For an initial evaluation of the inhibitory effect, 40 µM of 2TX/TXn was used. The thio-compound was added to the reaction mixture before the final addition of the enzyme (competition condition). For the best identified inhibitors, a dose-response curve was generated and IC50^A determined (Figure 1 and Table 1).

LlFpg/DNA complex C1 = target: T3, LlFpg/DNA complex C1 (Lactococcus lactis subsp. cremoris, UniProt P42371); assay: EMSA, Fpg DNA binding to 14-mer [THF:C] duplex, complex C1 (lesion recognition complex, Fpg/DNA 1/1); conditions: homogeneous reduced or disulfide form in 50 mM sodium phosphate; 14-mer [THF:C]; read-out: IC50^B (Fpg DNA binding), homogeneous redox forms
T3 construct: made in house; host or cells: E. coli BH540 (fpg defective)
From the text: as §1
Figure 2 The effect of 2TX and TXn on Fpg DNA binding to abasic site-containing DNA. A 14-mer DNA duplex containing a tetrahydrofurane (THF) site as an abasic site analog was incubated with a limiting Fpg concentration (0.25 nM) with and without increasing concentrations of TXn. Incubation mixtures were then analyzed by electrophoretic mobility shift assay (EMSA), as described in the ‘Materials and Methods’. (a) Titration experiments with (+) and without (-) 2 mM tris(2-carboxyethyl)phosphine hydrochloride (TCEP) C1 and C2 are for the [1/1] and [2/1] Fpg/DNA complexes, respectively (see detailed in the text). (b) Fpg DNA binding concentration-dependence for 2TX and the more efficient TXn inhibitors. A representative EMSA autoradiography with 0.25 nM of Fpg alone (lane no) and 0.5, 2.5, 5, 10, 20, 40, 50, 250, 1000 µM is shown in the upper panel. IC50app^B corresponds to the TXn amount needed to halve the C1 complex formation and was extracted from the dose-response curves (lower panel; Table 1).
The DNA binding activity was measured using EMSA [37]. Briefly, 0.1 nM of the 5′-labeled 14-mer [THF:C] (see above) was incubated with the enzyme at 4 °C for 30 min in 25 mM HEPES/NaOH (pH 7.5), 150 mM NaCl, 5% glycerol, 0.1 mg/mL BSA and 8% DMSO. The incubation mixture was then loaded onto a native 10% polyacrylamide gel (Acryl/Bis 19/1) and electrophoresed at 25 V/cm for 90 min at 4 °C. After electrophoresis, the gels were dried and exposed overnight for autoradiography using a Typhoon imager and quantified with ImageQuant software. To evaluate the inhibitor effect of 2TX/TXn on the DNA binding activity of each Fpg/Nei enzyme, we first determined the experimental conditions required to bind 50% of the DNA probes without an inhibitor in the presence of 8% DMSO (limiting enzyme concentration). Under these conditions, we obtained the half-maximal DNA binding 0.25, 7 and 5 nM of Fpg, hNeil1 and mvNei1. We used this limited enzyme concentrations to evaluate the inhibitor effect of 2TX/TXn on the enzyme DNA binding activity. This effect was determined by the addition of the thio-compound in the pre-equilibrium mixture of the enzyme and DNA probe (30 min) and incubated for an additional 30 min at 4 °C. For the best inhibitors of Fpg, a dose-response curve was established from at least three independent experiments and the IC50 was determined (IC50^B, Table 1).

mvNei1 = target: T4, mvNei1 (Acanthamoeba polyphaga mimivirus, UniProt Q5UQ00); assay: mvNei1 DNA glycosylase/AP lyase activity assay on DHU:G 24-mer duplex; type: biochemical; conditions: Figure 6d
T4 construct: 6His (C); made in house; host or cells: E. coli Rosetta2 (DE3)
Method: (§3) Figure 4 Comparative analysis of the effect of 2TX and TXn on Fpg/Nei DNA glycosylases. Enzyme activities were measured as described in the Figure 1 legend using […] of a 5′-[^32P]-24-mer DNA duplex containing either an 8-oxoG opposite C for LlFpg or a […] (DHU) opposite G for hNeil1 and mvNei1. The DNA probe was incubated with the indicated protein concentration and 0.2 mM TXn compounds in the presence or absence of 1 mM dithiothreitol (DTT) and TCEP (a representative experiment is illustrated by the upper histograms). The DNA probe for EMSA was 0.1 nM of 5′-[^32P]-[…] DNA duplex containing THF with LlFpg and mvNei1 (bottom panels: gel autoradiography) with the indicated conditions and as described in ‘Materials and Methods’.
as §2

hNeil1 = hNeil1 (Homo sapiens, UniProt Q96FI4); assay: hNeil1 DNA glycosylase/AP lyase activity assay on DHU:G 24-mer duplex; type: biochemical; parameters: Overproduction was performed as described above for full length hNeil1; 6His (C); made in house; host or cells: E. coli Rosetta2 (DE3); conditions: Figure 6d
Method: as §3, §2

Chain of hNeil1 (Q96FI4 whole entry): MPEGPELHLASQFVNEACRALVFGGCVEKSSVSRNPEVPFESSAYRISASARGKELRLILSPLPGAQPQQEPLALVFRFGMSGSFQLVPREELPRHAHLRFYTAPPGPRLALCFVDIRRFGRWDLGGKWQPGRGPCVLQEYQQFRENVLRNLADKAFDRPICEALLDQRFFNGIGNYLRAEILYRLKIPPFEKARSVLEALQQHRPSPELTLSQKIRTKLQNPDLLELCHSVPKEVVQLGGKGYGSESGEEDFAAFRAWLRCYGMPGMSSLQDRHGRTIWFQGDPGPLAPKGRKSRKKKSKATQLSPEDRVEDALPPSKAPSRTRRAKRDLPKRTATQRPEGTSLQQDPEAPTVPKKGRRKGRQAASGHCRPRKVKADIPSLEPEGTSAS
T4 sequence (Q5UQ00 whole entry): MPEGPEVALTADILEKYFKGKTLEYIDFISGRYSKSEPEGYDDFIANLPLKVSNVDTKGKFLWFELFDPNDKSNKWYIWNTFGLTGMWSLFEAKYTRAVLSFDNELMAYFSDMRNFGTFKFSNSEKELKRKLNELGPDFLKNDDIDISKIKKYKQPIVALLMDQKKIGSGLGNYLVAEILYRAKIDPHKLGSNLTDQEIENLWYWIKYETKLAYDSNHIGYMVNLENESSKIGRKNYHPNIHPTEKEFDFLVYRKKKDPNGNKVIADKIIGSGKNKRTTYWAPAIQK

SMILES: COc1nc(C(F)(F)F)nc2[nH]cnc12 [TX10]
- destabilization of complex C2 in highly reducing conditions (LlFpg/DNA complex C2): among the best C2 destabilizers

SMILES: O=c1[nH]c2[nH]c(=S)[nH]c(=O)c2[nH]1 [TX14Red]
- inhibition of Fpg catalytic activity by reduced forms (LlFpg): did not inhibit the enzyme
- IC50 (LlFpg): > 1000 µM
- IC50 (LlFpg/DNA complex C1): > 1000 µM

SMILES: O=c1[nH]c(SSc2nc3[nH]cnc3c(=O)[nH]2)nc2[nH]cnc12 [Compound 2TXOx]
- IC50 (LlFpg): 5.5 µM
- inhibition of mvNei1 by homogeneous disulfide forms (mvNei1): neither 2TXOx nor TX14Ox inhibited
- IC50 (LlFpg/DNA complex C1): 34 ± 2 µM
- inhibition of hNeil1 by homogeneous disulfide forms (hNeil1): neither 2TXOx nor TX14Ox inhibited

SMILES: O=c1[nH]c(=S)[nH]c2[nH]cnc12 [Compound 2TXRed, reference compound]
- inhibition of Fpg catalytic activity by reduced forms (LlFpg): did not inhibit the enzyme
- IC50 (LlFpg): > 1000 µM
- IC50 (LlFpg/DNA complex C1): > 1000 µM

SMILES: O=c1[nH]c2nc(SSc3nc4[nH]c(=O)[nH]c4c(=O)[nH]3)[nH]c(=O)c2[nH]1 [TX14Ox]
- IC50 (LlFpg): 2.7 µM
- inhibition of mvNei1 by homogeneous disulfide forms (mvNei1): neither 2TXOx nor TX14Ox inhibited
- IC50 (LlFpg/DNA complex C1): 26 ± 1 µM
- inhibition of hNeil1 by homogeneous disulfide forms (hNeil1): neither 2TXOx nor TX14Ox inhibited

SMILES: Cc1nc(S)c2[nH]cnc2n1 [TX4]
- effect on Fpg 8-oxoG-DNA glycosylase/AP lyase activity (screening) (LlFpg; 40 µM compound, Figure 1a): drastically decreased the inhibitory effect

SMILES: CNc1nc(C(F)(F)F)nc2[nH]cnc12 [TX11]
- destabilization of complex C2 in highly reducing conditions (LlFpg/DNA complex C2): among the best C2 destabilizers
